Measured values: patent EP2488183B1, “Composition for inhibiting TGF-beta comprising imidazopurine derivatives” (Korea Institute of Radiological & Medical Sciences, priority 2009, dated 2011)

Legend:
HSC-T6 cells = assay: Serum-induced proliferation of hepatic stellate cells, CCK-8 assay; type: cell-based, human; details: added 2 h before serum, 48 h
Description: HSC-T6 cells, a stable cell line made by professor S.L. Friedman at Mount Sinai in U.S. A., were obtained and used as hepatic stellate cells (HSC), which are employed mainly as a subject for liver fibrosis. HSC-T6 cells were c under 5% CO2 at a temperature of 37°C in a DMEM supplemented with 10% FBS, 100 units/ml of penicillin, and 100 µg/ml of streptomycin. In order to identify whether compounds I and II directly affect proliferation of hepatic stellate cells, the incubation was performed in a serum-free medium for 24 hours and then the culture was treated with 1, 10, and 20 µM of the compounds I and II, 2 hours prior to addition of serum thereto. Subsequently, under the condition described above, the incubation was further performed for 48 hours and then a CCK-8 assay kit was used to measure cell viability. Absorbance was measured at a wavelength of 450 nm by using a spectrophotometer (Labsystems, U.S.A.) to count the number of cells.

H1299 = assay: Apoptosis of lung cancer cells alone or with doxorubicin, CCK-8 viability assay; type: cell-based; details: 48 h; for apoptosis effect together with doxorubicin: H1299, compound added 2 h before doxorubicin 0.05 µM; for apoptosis: H1299, compound alone at 5 µM or more, FIGS. 9a, 9c
Description: TGF-βis known to have contrasting effects related to a tumor. That is, at an initial stage, TGF-β suppresses tumor growth, but at a latter stage, promotes metastasis or infiltration of a tumor. Thus, apoptosis of tumor cell lines caused by compound I and II, and apoptosis of tumor cell lines caused by compound I or II in combination with doxorubicin, an anti-cancer agent, were measured. […] The tumor cells were treated with compound I or II at the concentrations shown in FIG. 9, and 2 hours later, doxorubicin was added thereto. Then, the cells were incubated for 48 hours under the conditions described above and then, quantified using a CCK-8 viability assay kit (Dojindo, Japan).

RAW 264.7 cell = assay: RT-PCR of pro-inflammatory cytokine and iNOS mRNA in macrophages stimulated by LPS; type: cell-based, mouse; details: RAW 264.7, compound 2 h before 1 µg/ml LPS, 6 h; FIG. 8
Description: A macrophage is a front-line immune cell that is responsible for an initial immune response to various antigens and causes a strong inflammation reaction. RAW 264.7 cell, a mouse macrophage strain, was purchased from American Type Culture Collection (ATCC, U.S.A.), and incubated under 5% CO2 and at a temperature of 37°C in a Dulbecco's modified Eagle's medium (DMEM) supplemented with 10% FBS serum, 100 units/ml of penicillin, and 100 µg/ml of streptomycin. […] of compound I or II was added to the incubated cells and then, two hours later, the cells were treated with 1 µg/ml lipopolysaccharide (LPS), which is a cell wall component of a gram negative bacteria and incubated further for 6 hours. Then, the cells were collected and the total RNA thereof was isolated using TRIzol and quantified. Out of the total RNA, 1 µg of RNA was used to synthesize cDNA using a reverse transcriptase. Then, a polymerase chain reaction (PCR) was performed using the cDNA as a template to identify expression levels of cytokines. In detail, PCR was performed in the presence of a DNA polymerase using the cDNA as a template to amplify IL-1β, IL-6, and TNF-α which are pro-inflammatory cytokines, iNOS, nitric oxide synthase, and β-actin used as a control group with a cycle consisting of 30 seconds at a temperature of 94°C, 45 seconds at a temperature of 55°C, and 45 seconds at a temperature of 72°C repeated 30 times. Primers set forth in SEQ ID. NOs: 1 through 10 shown in Table 1 were used to amplify IL-1β, IL-6, TNF-α, iNOS and β-actin, respectively. Table 1 [Table 1]
The amplification product of PCR was subjected to electrophoresis on 1% agarose gel in which ethidium bromide (dye) was present so as to measure mRNA expression levels of the cytokines. FIGS. 8a and 8b show changes in the amounts of the pro-inflammatory cytokines caused by compounds I and II, respectively.

H1299 cells = assay: Apoptosis alone or with radiation, Annexin-PI staining and FACS assay; type: cell-based; details: 48 h; for effect on apoptosis together with radiation compared to compound or radiation alone: H1299, 6 Gy
Description: H1299, a cell strain of lung cancer, which is generally treated by radiation therapy, was treated with radiation in combination with compound I or II, and apoptosis thereof was measured. Compound I or II was added to H1299 cells inoculated to a 6 cm cell incubation plate as described in Example 3, and two hours later, 6 Gy of radioactive rays were irradiated thereto, and 48 hours later, apoptosis was measured by Annexin-PI staining and FACS assay. […] Table 2 [Table 2]

[1] = H1299, compound 5 µM + radiation (6 Gy) 2 h later

| Structure (SMILES) | proliferation of hepatic stellate cells (HSC-T6 cells; 1, 10 and 20 µM, FIG. 5a) | apoptosis effect together with doxorubicin (H1299) | apoptosis (H1299) | IL-1 mRNA expression (RAW 264.7 cell) | expression of TNF-α (RAW 264.7 cell) | iNOS mRNA expression (RAW 264.7 cell) | effect on apoptosis together with radiation compared to compound or radiation alone (H1299 cells) | Apoptosis (%, average±SEM) (H1299 cells; [1]) | Apoptosis (%, average±SEM) (H1299 cells; H1299, compound 5 µM alone) | inhibition at 1 µM (HSC-T6 cells; Homo sapiens, HSC-T6, 1 µM, FIG. 5b, read-out: proliferation of hepatic stellate cells inhibited) | inhibition at 10 µM (HSC-T6 cells; Homo sapiens, HSC-T6, 10 µM, FIG. 5b, read-out: proliferation of hepatic stellate cells inhibited) | inhibition at 20 µM (HSC-T6 cells; Homo sapiens, HSC-T6, 20 µM, FIG. 5b, read-out: proliferation of hepatic stellate cells inhibited) | IL-6 mRNA expression (RAW 264.7 cell) |
| --- | --- | --- | --- | --- | --- | --- | --- | --- | --- | --- | --- | --- | --- |
| Cc1cn2c(nc3c2c(=O)n(Cc2ccccc2Cl)c(=O)n3C)[nH]1 [compound I, 3-(2-chlorobenzyl)-1,7-dimethyl-1H-imidazo[2,1-f]purine-2,4(3H,8H)-dion] | almost completely blocked | additive or synergistic apoptosis effects | apoptosis occurred | significantly inhibited | slightly reduced | significantly inhibited | synergistic effect on apoptosis | 73.42±1.84% | 20.86±1.03% | – | – | – | – |
| Cc1[nH]c2nc3c(c(=O)n(Cc4c(F)cccc4Cl)c(=O)n3C)n2c1C [compound II, 3-(2-chloro-6-fluorobenzyl)-1,6,7-trimethyl-1H-imidazo[2,1-f]purine-2,4(3H,8H)-dion] | – | additive or synergistic apoptosis effects | apoptosis occurred | – | slightly reduced | distinctively reduced | synergistic effect on apoptosis | 55.91±5.58% | 14.79±0.78% | 12% | 25% | 30% | distinctively reduced |
